In patent publication US9487510B2, “Substituted heterocyclic acetamides as kappa opioid receptor (KOR) agonists” (Dr. Reddy's Laboratories Ltd., priority 2012, dated 2016):

Molecular target: human KOR receptor (Homo sapiens, UniProt P41145)
Experiment: IP-One HTRF assay, potency of KOR agonists, dose-response in transiently transfected COS-7 cells
Type: cell-based

Chain of human KOR receptor (P41145 whole entry): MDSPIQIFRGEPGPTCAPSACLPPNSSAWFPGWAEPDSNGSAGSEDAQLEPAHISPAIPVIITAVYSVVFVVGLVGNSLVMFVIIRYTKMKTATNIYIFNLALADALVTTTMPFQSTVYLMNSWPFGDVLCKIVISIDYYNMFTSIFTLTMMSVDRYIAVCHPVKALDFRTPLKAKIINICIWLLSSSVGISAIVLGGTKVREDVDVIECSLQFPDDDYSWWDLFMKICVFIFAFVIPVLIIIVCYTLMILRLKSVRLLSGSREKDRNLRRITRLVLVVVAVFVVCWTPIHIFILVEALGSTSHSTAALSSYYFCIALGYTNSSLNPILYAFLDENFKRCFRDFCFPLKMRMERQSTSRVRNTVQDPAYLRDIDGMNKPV

CN(C(=O)Cc1ccc2c(c1)NC(=O)C2)[C@H](CN1CC[C@H](O)C1)c1cccc(-c2noc(C(F)(F)F)n2)c1 [Example 179, N-((S)-2-((S)-3-hydroxypyrrolidin-1-yl)-1-(3-(5-(trifluoromethyl)-1,2,4-oxadiazol-3-yl)phenyl)ethyl)-N-methyl-2-(2-oxoindolin-6-yl)acetamide]
EC50: ≤ 50 nM

C#Cc1cccc([C@@H](CN2CC[C@H](O)C2)N(C)C(=O)Cc2ccc3c(c2)NC(=O)C3)c1 [Example 180, N-((S)-1-(3-ethynylphenyl)-2-((S)-3-hydroxypyrrolidin-1-yl)ethyl)-N-methyl-2-(2-oxoindolin-6-yl)acetamide]
EC50: ≤ 50 nM

Cc1nc(-c2cccc([C@@H](CN3CC[C@H](O)C3)N(C)C(=O)Cc3ccc4c(c3)NS(=O)(=O)C4)c2)no1 [Example 181, 2-(2,2-dioxido-1,3-dihydrobenzo[c]isothiazol-6-yl)-N-((S)-2-((S)-3-hydroxypyrrolidin-1-yl)-1-(3-(5-methyl-1,2,4-oxadiazol-3-yl)phenyl)ethyl)-N-methylacetamide]
EC50: ≤ 50 nM

C#Cc1cccc([C@@H](CN2CC[C@H](O)C2)N(C)C(=O)Cc2ccc3c(c2)NS(=O)(=O)C3)c1 [Example 182, 2-(2,2-dioxido-1,3-dihydrobenzo[c]isothiazol-6-yl)-N-((S)-1-(3-ethynylphenyl)-2-((S)-3-hydroxypyrrolidin-1-yl)ethyl)-N-methylacetamide]
EC50: ≤ 50 nM

Cc1nc(-c2cccc([C@@H](CN3CC[C@H](O)C3)N(C)C(=O)Cc3ccc4sc(=O)[nH]c4c3)c2)no1 [Example 183, N-((S)-2-((S)-3-hydroxypyrrolidin-1-yl)-1-(3-(5-methyl-1,2,4-oxadiazol-3-yl)phenyl)ethyl)-N-methyl-2-(2-oxo-2,3-dihydrobenzo[d]thiazol-5-yl)acetamide]
EC50: ≤ 50 nM

CN(C(=O)Cc1ccc2sc(=O)[nH]c2c1)[C@H](CN1CC[C@H](O)C1)c1cccc(-c2noc(C(F)(F)F)n2)c1 [Example 184, N-((S)-2-((S)-3-hydroxypyrrolidin-1-yl)-1-(3-(5-(trifluoromethyl)-1,2,4-oxadiazol-3-yl)phenyl)ethyl)-N-methyl-2-(2-oxo-2,3-dihydrobenzo[d]thiazol-5-yl)acetamide]
EC50: ≤ 50 nM

CN(C(=O)Cc1ccc2c(c1)NC(=O)C2)[C@H](CN1CC[C@H](O)C1)c1cccc(-c2ncon2)c1 [Example 185, N-((S)-1-(3-(1,2,4-oxadiazol-3-yl)phenyl)-2-((S)-3-hydroxypyrrolidin-1-yl)ethyl)-N-methyl-2-(2-oxoindolin-6-yl)acetamide 2,2,2-trifluoroacetate]
EC50: ≤ 50 nM

CN(C(=O)Cc1ccc2c(c1)NS(=O)(=O)C2)[C@H](CN1CC[C@H](O)C1)c1cccc(-c2ncon2)c1 [Example 186, N-((S)-1-(3-(1,2,4-oxadiazol-3-yl)phenyl)-2-((S)-3-hydroxypyrrolidin-1-yl)ethyl)-2-(2,2-dioxido-1,3-dihydrobenzo[c]isothiazol-6-yl)-N-methylacetamide]
EC50: ≤ 50 nM

CN(C(=O)Cc1ccc2c(c1)NS(=O)(=O)C2)[C@H](CN1CC[C@H](O)C1)c1cccc(-c2noc(C(F)(F)F)n2)c1 [Example 187, 2-(2,2-dioxido-1,3-dihydrobenzo [c]isothiazol-6-yl)-N-((S)-2-((S)-3-hydroxypyrrolidin-1-yl)-1-(3-(5-(trifluoromethyl)-1,2,4-oxadiazol-3-yl)phenyl)ethyl)-N-methylacetamide 2,2,2-trifluoroacetate]
EC50: ≤ 50 nM

CCN(CC)C(=O)c1cccc([C@@H](CN2CC[C@H](O)C2)N(C)C(=O)Cc2ccc3sc(=O)[nH]c3c2)c1 [Example 188, N,N-diethyl-3-((S)-2-((S)-3-hydroxypyrrolidin-1-yl)-1-(N-methyl-2-(2-oxo-2,3-dihydrobenzo[d]thiazol-5-yl)acetamido)ethyl)benzamide]
EC50: ≤ 50 nM

CN(C(=O)Cc1ccc2sc(=O)[nH]c2c1)[C@H](CN1CC[C@H](O)C1)c1cccc(-c2ncon2)c1 [Example 189, N-((S)-1-(3-(1,2,4-oxadiazol-3-yl)phenyl)-2-((S)-3-hydroxypyrrolidin-1-yl)ethyl)-N-methyl-2-(2-oxo-2,3-dihydrobenzo[d]thiazol-5-yl)acetamide 2,2,2-trifluoroacetate]
EC50: ≤ 50 nM

CN(C(=O)Cc1ccc2ncc(=O)[nH]c2c1)[C@H](CN1CC[C@H](O)C1)c1cccc(-c2ncon2)c1 [Example 190, N-((S)-1-(3-(1,2,4-oxadiazol-3-yl)phenyl)-2-((S)-3-hydroxypyrrolidin-1-yl)ethyl)-N-methyl-2-(3-oxo-3,4-dihydroquinoxalin-6-yl)acetamide 2,2,2-trifluoroacetate]
EC50: ≤ 50 nM

CN(C(=O)Cc1ccc2sc(=O)[nH]c2c1)[C@H](CN1CC[C@H](O)C1)c1cccc(-c2ncc[nH]2)c1 [Example 191, N-((S)-1-(3-(1H-imidazol-2-yl)phenyl)-2-((S)-3-hydroxypyrrolidin-1-yl)ethyl)-N-methyl-2-(2-oxo-2,3-dihydrobenzo[d]thiazol-5-yl)acetamide]
EC50: ≤ 50 nM

CN(C(=O)Cc1ccc2sc(=O)[nH]c2c1)[C@H](CN1CC[C@H](O)C1)c1cccc(-c2nccs2)c1 [Example 192, N-((S)-2-((S)-3-hydroxypyrrolidin-1-yl)-1-(3-(thiazol-2-yl)phenyl)ethyl)-N-methyl-2-(2-oxo-2,3-dihydrobenzo[d]thiazol-5-yl)acetamide]
EC50: 101 to 1000 nM

Cc1nc(-c2cccc([C@@H](CN3CC[C@H](O)C3)N(C)C(=O)Cc3ccc4ncc(=O)[nH]c4c3)c2)no1 [Example 194, N-((S)-2-((S)-3-hydroxypyrrolidin-1-yl)-1-(3-(5-methyl-1,2,4-oxadiazol-3-yl)phenyl)ethyl)-N-methyl-2-(3-oxo-3,4-dihydroquinoxalin-6-yl)acetamide]
EC50: ≤ 50 nM

CN(C(=O)Cc1ccc2c(c1)NS(=O)(=O)C2)[C@H](CN1CC[C@H](O)C1)c1cccc(C(=O)NCC(F)(F)F)c1 [Example 195, 3-((S)-1-(2-(2,2-dioxido-1,3-dihydrobenzo[c]isothiazol-6-yl)-N-methylacetamido)-2-((S)-3-hydroxypyrrolidin-1-yl)ethyl)-N-(2,2,2-trifluoroethyl)benzamide]
EC50: ≤ 50 nM

CN(C(=O)Cc1ccc2ncc(=O)[nH]c2c1)[C@H](CN1CC[C@H](O)C1)c1cccc(C(=O)NCC(F)(F)F)c1 [Example 196, 3-((S)-2-((S)-3-hydroxypyrrolidin-1-yl)-1-(N-methyl-2-(3-oxo-3,4-dihydroquinoxalin-6-yl)acetamido)ethyl)-N-(2,2,2-trifluoroethyl)benzamide]
EC50: ≤ 50 nM

CN(C(=O)Cc1ccc2c(c1)NC(=O)C2)[C@H](CN1CC[C@H](O)C1)c1cc(F)cc(C#N)c1 [Example 197, N-((S)-1-(3-cyano-5-fluorophenyl)-2-((S)-3-hydroxypyrrolidin-1-yl)ethyl)-N-methyl-2-(2-oxoindolin-6-yl)acetamide]
EC50: 51 to 100 nM

CN(C(=O)Cc1ccc2c(c1)NC(=O)C2)[C@H](CN1CC[C@H](O)C1)c1cccc(-c2ncc[nH]2)c1 [Example 198, N-((S)-1-(3-(1H-imidazol-2-yl)phenyl)-2-((S)-3-hydroxypyrrolidin-1-yl)ethyl)-N-methyl-2-(2-oxoindolin-6-yl)acetamide 2,2,2-trifluoroacetate]
EC50: ≤ 50 nM

CN(C(=O)Cc1ccc2c(c1)NS(=O)(=O)C2)[C@H](CN1CC[C@H](O)C1)c1cc(F)cc(C#N)c1 [Example 199, N-((S)-1-(3-cyano-5-fluorophenyl)-2-((S)-3-hydroxypyrrolidin-1-yl)ethyl)-2-(2,2-dioxido-1,3-dihydrobenzo[c]isothiazol-6-yl)-N-methylacetamide]
EC50: ≤ 50 nM

CN(C(=O)Cc1ccc2ncc(=O)[nH]c2c1)[C@H](CN1CC[C@H](O)C1)c1cc(F)cc(C#N)c1 [Example 200, N-((S)-1-(3-cyano-5-fluorophenyl)-2-((S)-3-hydroxypyrrolidin-1-yl)ethyl)-N-methyl-2-(3-oxo-3,4-dihydroquinoxalin-6-yl)acetamide]
EC50: ≤ 50 nM

C#Cc1cccc([C@@H](CN2CC[C@H](O)C2)N(C)C(=O)Cc2ccc3c(c2)NC(=O)CS3(=O)=O)c1 [Example 201, 2-(1,1-dioxido-3-oxo-3,4-dihydro-2H-benzo[b][1,4]thiazin-6-yl)-N-((S)-1-(3-ethynylphenyl)-2-((S)-3-hydroxypyrrolidin-1-yl)ethyl)-N-methylacetamide]
EC50: ≤ 50 nM

CN(C(=O)Cc1ccc2c(c1)NS(=O)(=O)C2)[C@H](CN1CC[C@H](O)C1)c1cccc(-c2ncc[nH]2)c1 [Example 202, N-((S)-1-(3-(1H-imidazol-2-yl)phenyl)-2-((S)-3-hydroxypyrrolidin-1-yl)ethyl)-2-(2,2-dioxido-1,3-dihydrobenzo[c]isothiazol-6-yl)-N-methylacetamide]
EC50: 51 to 100 nM

CN(C(=O)Cc1ccc2c(c1)NS(=O)(=O)C2)[C@H](CN1CC[C@H](O)C1)c1cccc(C#N)c1 [Example 203, N-((S)-1-(3-cyanophenyl)-2-((S)-3-hydroxypyrrolidin-1-yl)ethyl)-2-(2,2-dioxido-1,3-dihydrobenzo[c]isothiazol-6-yl)-N-methylacetamide]
EC50: ≤ 50 nM

CCC#Cc1cccc([C@@H](CN2CC[C@H](O)C2)N(C)C(=O)Cc2ccc3c(c2)NC(=O)C3)c1 [Example 204, N-((S)-1-(3-(but-1-yn-1-yl)phenyl)-2-((S)-3-hydroxypyrrolidin-1-yl)ethyl)-N-methyl-2-(2-oxoindolin-6-yl)acetamide]
EC50: ≤ 50 nM

CCC#Cc1cccc([C@@H](CN2CC[C@H](O)C2)N(C)C(=O)Cc2ccc3sc(=O)[nH]c3c2)c1 [Example 205, N-((S)-1-(3-(but-1-yn-1-yl)phenyl)-2-((S)-3-hydroxypyrrolidin-1-yl)ethyl)-N-methyl-2-(2-oxo-2,3-dihydrobenzo[d]thiazol-5-yl)acetamide]
EC50: ≤ 50 nM

CCC#Cc1cccc([C@@H](CN2CC[C@H](O)C2)N(C)C(=O)Cc2ccc3ncc(=O)[nH]c3c2)c1 [Example 206, N-((S)-1-(3-(but-1-yn-1-yl)phenyl)-2-((S)-3-hydroxypyrrolidin-1-yl)ethyl)-N-methyl-2-(3-oxo-3,4-dihydroquinoxalin-6-yl)acetamide]
EC50: ≤ 50 nM

CN(C)C(=O)c1cccc([C@@H](CN2CC[C@H](O)C2)N(C)C(=O)Cc2ccc3c(c2)NC(=O)C3)c1 [Example 207, 3-((S)-2-((S)-3-hydroxypyrrolidin-1-yl)-1-(N-methyl-2-(2-oxoindolin-6-yl)acetamido)ethyl)-N,N-dimethylbenzamide]
EC50: ≤ 50 nM
